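1) Cells in 96-well plates. 2) Compound, 48 h, 5 concentrations. 3) Linear interpolation between surrounding doses. 4) Unreached endpoint = highest concentration. Definition used: TGI = concentration required for complete inhibition of growth.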
Columns and labels:
Experiment in all cases: growth of human tumour cells (NCI), 48 h
U251 CNS = system: U251 CNS
OVCAR-5 ovarian = system: OVCAR-5 ovarian
MALME-3M melanoma = system: MALME-3M melanoma
CCRF-CEM leukemia = system: CCRF-CEM leukemia
SF-268 CNS = system: SF-268 CNS
HOP-92 NSCLC = system: HOP-92 NSCLC
M14 melanoma = system: M14 melanoma
BT-549 breast = system: BT-549 breast
SK-OV-3 ovarian = system: SK-OV-3 ovarian
SF-539 CNS = system: SF-539 CNS
OVCAR-4 ovarian = system: OVCAR-4 ovarian
NCI/ADR-RES ovarian = system: NCI/ADR-RES ovarian
ACHN renal = system: ACHN renal
MDA-N = system: MDA-N
HCC-2998 colon = system: HCC-2998 colon
DU-145 prostate = system: DU-145 prostate
MCF7 breast = system: MCF7 breast
SNB-19 CNS = system: SNB-19 CNS
CAKI-1 renal = system: CAKI-1 renal
EKVX NSCLC = system: EKVX NSCLC
A498 renal = system: A498 renal
786-0 renal = system: 786-0 renal
OVCAR-3 ovarian = system: OVCAR-3 ovarian
A549 NSCLC = system: A549 NSCLC
SNB-75 CNS = system: SNB-75 CNS
T-47D breast = system: T-47D breast
UACC-257 melanoma = system: UACC-257 melanoma
HT29 colon = system: HT29 colon
LOX IMVI melanoma = system: LOX IMVI melanoma
IGROV1 ovarian = system: IGROV1 ovarian
RPMI-8226 leukemia = system: RPMI-8226 leukemia
HL-60(TB) leukemia = system: HL-60(TB) leukemia
UO-31 renal = system: UO-31 renal
HCT-116 colon = system: HCT-116 colon
MDA-MB-231 breast = system: MDA-MB-231 breast
NCI-H226 lung = system: NCI-H226 lung
SR leukemia = system: SR leukemia
SK-MEL-5 melanoma = system: SK-MEL-5 melanoma
SF-295 CNS = system: SF-295 CNS
PC-3 prostate = system: PC-3 prostate
KM12 colon = system: KM12 colon
NCI-H460 lung = system: NCI-H460 lung
SW-620 colon = system: SW-620 colon
UACC-62 melanoma = system: UACC-62 melanoma
K-562 leukemia = system: K-562 leukemia
OVCAR-8 ovarian = system: OVCAR-8 ovarian
SN12C renal = system: SN12C renal
NCI-H522 lung = system: NCI-H522 lung
HCT-15 colon = system: HCT-15 colon
NCI-H23 lung = system: NCI-H23 lung
HS 578T breast = system: HS 578T breast
SK-MEL-2 melanoma = system: SK-MEL-2 melanoma
RXF 393 renal = system: RXF 393 renal
TK-10 renal = system: TK-10 renal
SK-MEL-28 melanoma = system: SK-MEL-28 melanoma
MOLT-4 leukemia = system: MOLT-4 leukemia
MDA-MB-435 = system: MDA-MB-435
COLO 205 colon = system: COLO 205 colon
HOP-62 NSCLC = system: HOP-62 NSCLC

Measured: TGI

CC1(C)CCC(=O)NC1CC(=O)CC1NC(=O)CCC1(C)C (centres undefined)
> 100 µM: all assays above

Nc1nc(-c2cccc([N+](=O)[O-])c2)cc(-c2cc(-c3cccc([N+](=O)[O-])c3)nc(N)n2)n1
not listed: CCRF-CEM leukemia | SNB-75 CNS
> 100 µM: all other assays above

Nn1c(Cc2ccccc2)n[nH]c1=O
not listed: HOP-92 NSCLC | NCI-H460 lung | RXF 393 renal
> 100 µM: all other assays above

CC(=O)O[C@H]1C[C@H]2C(=S)Nc3ccccc3C(=S)N2C1
not listed: SF-539 CNS | HL-60(TB) leukemia
> 100 µM: all other assays above
